Data published in US20250197641A1, “OPTICAL ABSORBENT” (priority 2023, published 2025).

Columns and labels:
Format in all cases: physicochemical
[1] = Solubility of the absorbent in methylene chloride; conditions: room temperature (about 25° C.)
Procedure: The solubility of the absorbent was evaluated. Solubility was determined based on the following criteria by evaluating the solubility of the absorbent in the solvent (MC, Methylene Chloride) at room temperature (about 25° C.).

[2] = Transmittance of absorption membrane before and after reliability evaluation (Test Example 1); conditions: for 425~465 nm Tave, Δ / 425~465 nm Tmin, Δ / 466~480 nm Tave, Δ / 466~480 nm Tmin, Δ / 480~560 nm Tave, Δ / λmax Tmax (transmittance at the absorption maximum), Δ: change before/after 85° C.; for 425~465 nm Tave, Δ / 425~465 nm Tmin, Δ / 466~480 nm Tave, Δ / 466~480 nm Tmin, Δ / 480~560 nm Tave, Δ / λmax Tmax (transmittance at the absorption maximum), Δ / 425~465 nm Tave, A / 425~465 nm Tmin, A / 466~480 nm Tave, A / 466~480 nm Tmin, A / 480~560 nm Tave, A: 85% RH, 120 hours; for 425~465 nm Tave, B / 425~465 nm Tmin, B / 466~480 nm Tave, B / 466~480 nm Tmin, B / 480~560 nm Tave, B: silicone resin membrane about 6 μm, before reliability evaluation; for 425~465 nm Tave, A / 425~465 nm Tmin, A / 466~480 nm Tave, A / 466~480 nm Tmin, A / 480~560 nm Tave, A: silicone resin membrane, after 85° C.
Procedure: The transmittance spectrum was measured using a spectrophotometer (Manufacturer: Perkinelmer, Product Name: Lambda 750 Spectrophotometer) on a specimen obtained by cutting the measurement object (e.g., an absorption membrane) so that the width and height were 10 mm and 10 mm, respectively. The transmittance spectrum was measured for each wavelength according to the equipment manual. The specimen was placed on a straight line between a measuring beam of the spectrophotometer and a detector and the transmittance spectrum was confirmed by setting the incident angle of the measuring beam to 0°. The incident angle of 0° is a direction substantially parallel to the surface normal direction of the specimen. The average transmittance within a certain wavelength range in the transmittance spectrum is the result of measuring the transmittance at each wavelength while increasing the wavelength by 1 nm starting from the shortest wavelength in the wavelength range, and then calculating the arithmetic average of the measured transmittances. The maximum transmittance is the maximum transmittance among the transmittances measured while increasing the wavelength by 1 nm and the minimum transmittance is the minimum transmittance among the transmittances measured while increasing the wavelength by 1 nm. For example, the average transmittance within the wavelength range of 350 nm to 360 nm is the arithmetic mean of the transmittance measured at the wavelength of 350 nm, 351 nm, 352 nm, 353 nm, 354 nm, 355 nm, 356 nm, 357 nm, 358 nm, 359 nm, and 360 nm. The maximum transmittance within the wavelength range of 350 nm to 360 nm is the highest transmittance measured at wavelengths of 350 nm, 351 nm, 352 nm, 353 nm, 354 nm, 355 nm, 356 nm, 357 nm, 358 nm, 359 nm and 360 nm and the minimum transmittance within the wavelength range of 350 nm to 360 nm is the lowest transmittance among the transmittances measured at wavelengths of 350 nm, 351 nm, 352 nm, 353 nm, 354 nm, 355 nm, 356 nm, 357 nm, 358 nm, 359 nm, and 360 nm.
A coating solution was prepared by mixing silicone resin (Dow Chemical, RSN-0217), absorbent, and solvent (cyclohexanone) as resin components. The mixing ratio of the resin component, absorbent, and solvent was set to be 69.3:0.99:29.7 in weight ratio (resin:absorbent:solvent).
The coating solution was coated on a transparent substrate (a glass substrate manufactured by SCHOTT) and maintained at 140° C. for about 2 hours to form an absorption membrane with a thickness of about 6 μm.
Tables 2 and 3 below summarize the transmittance of the absorption membrane before and after reliability evaluation in the ultraviolet and near-infrared regions. The reliability evaluation is an evaluation of maintaining the absorption membrane at 85° C. and under 85% relative humidity condition for 120 hours. In Table 2, B refers to the result before performing the reliability evaluation and A refers to the result after performing the reliability evaluation. Additionally, in Table 2, λmax means the transmittance at the absorption maximum.
In Tables 2 and 3, Δ is the rate of change (%) of each characteristic before and after the reliability evaluation, calculated as 100×[…]/B, where […], B is the value indicated by B in Table 2. In Table 2, Tmax refers to the highest transmittance within the corresponding wavelength region, Tave refers to the average transmittance within the corresponding wavelength region, and Tmin refers to the minimum transmittance within the corresponding wavelength region.

[3] = Absorption maximum measurement; conditions: chloroform, about 10^-5 M
Procedure: The maximum absorption was evaluated by a conventional method. Specifically, the sample was dissolved in chloroform solvent at a concentration of about 10^−5 M and then evaluated using measuring equipment (Agilent, Varian Cary 4000).

[4] = Absorption spectra of absorption membrane before and after high temperature/high humidity evaluation (Test Example 2); conditions: 85% relative humidity, 120 hours; for ΔA = 100×(Af−Ai)/Ai / Δλ = 100×(λf−λi)λi: 85° C.; for Af, transmittance at the absorption maximum wavelength / λf, absorption maximum wavelength: absorption membrane after 85° C.; for Ai, transmittance at the absorption maximum wavelength / λi, absorption maximum wavelength: absorption membrane before 85° C.
Source text: FIGS. 4 to 6 are the absorption spectra of the absorption membranes prepared in Test Example 1 using the absorbents of Embodiments 1 to 3, respectively. FIGS. 7 to 9 are the absorption spectrum of the absorption membrane prepared in Test Example using the absorbents of Comparative Examples 1 to 3, respectively. In the FIGS., the spectra indicated before reliability is the result immediately after preparing the absorption membrane, and the spectra indicated after reliability is the result after high temperature/high humidity evaluation was performed on the absorption membrane. The high temperature/high humidity evaluation is an evaluation where the absorption membrane is maintained at a temperature of 85° C. under a relative humidity of 85% for 120 hours. In Tables 4 and 5, Af is the transmittance at the absorption maximum wavelength of the absorption membrane maintained at 85° C. under 85% relative humidity for 120 hours and λf is the absorption maximum wavelength for after case. Ai is the transmittance at the absorption maximum wavelength of the absorption membrane before being maintained at 85° C. under 85% relative humidity for 120 hours and λi is the absorption maximum wavelength for before case. In Tables 4 and 5, ΔA is a value calculated as 100×(Af−Ai)/Ai, and Δλ is a value calculated as 100×(λf−λi)λi.

[5] = Pyrolysis temperature (Td 5%) analysis by TGA; conditions: 25-800° C., 10° C./min, N2
Procedure: The Td 5% is a value obtained through TGA (Thermogravimetric Analysis) analysis. It is the value (Td 5%) at a weight loss of 5% confirmed under the conditions of a temperature range of 25° C. to 800° C., a temperature increase rate of 10° C./min, and a nitrogen (N2) atmosphere of 60 cm^3/min.
Thermogravimetric Analysis (TGA) of the chemical compound was performed by using Scinco's TGA N-1000 equipment. The analysis was performed by using approximately 3 mg of sample (chemical compound) and the analysis was conducted under conditions of a temperature range of 25° C. to 800° C., a temperature increase rate of 10° C./min, and nitrogen (N2) atmosphere of 60 cm^3/min. The value at […] (Td 5%) was used as the Td decomposition temperature.

Row | SMILES | 425~465 nm Tave, Δ [2] | 425~465 nm Tmin, Δ [2] | 466~480 nm Tave, Δ [2] | 466~480 nm Tmin, Δ [2] | 480~560 nm Tave, Δ [2] | λmax Tmax (transmittance at the absorption maximum), Δ [2] | 425~465 nm Tave, B [2] | 425~465 nm Tmin, B [2] | 466~480 nm Tave, B [2] | 466~480 nm Tmin, B [2] | 480~560 nm Tave, B [2] | 425~465 nm Tave, A [2] | 425~465 nm Tmin, A [2] | 466~480 nm Tave, A [2] | 466~480 nm Tmin, A [2] | 480~560 nm Tave, A [2] | Maximum Absorption Wavelength [3] | ΔA = 100×(Af−Ai)/Ai [4] | Δλ = 100×(λf−λi)λi [4] | Af, transmittance at the absorption maximum wavelength [4] | other results
1 | CCCCN1\C(=C/C=C/C=C/C=C/C2=[N+](CCCC)c3ccccc3C2(C)C)C(C)(C)c2ccccc21 [Comparative Example 1] | 0.2% | 1.0% | −0.6% | −0.7% | −0.3% | 14.7% | 88.7% | 86.5% | 90.1% | 89.8% | 90.1% | 88.9% | 87.5% | 89.5% | 89.1% | 89.8% | 761 nm | 69.0% | −13% | 36.0% | Solubility [1]: A (When solubility is 1 mass % or more); λf, absorption maximum wavelength [4]: 747 nm; Ai, transmittance at the absorption maximum wavelength [4]: 21.3%; λi, absorption maximum wavelength [4]: 748 nm; Td 5% [5]: 215 °C
2 | CCCCN1\C(=C/C=C/C=C/C=C/C2=[N+](CCCC)c3ccc4ccccc4c3C2(C)C)C(C)(C)c2c1ccc1ccccc21 [Comparative Example 2] | 0% | −0.2% | 0.1% | −0.1% | −0.3% | 12.8% | 89.6% | 88.9% | 90.2% | 89.8% | 91.2% | 89.6% | 88.7% | 90.2% | 89.7% | 90.9% | 801 nm | 27.1% | 13% | 59.8% | Solubility [1]: A (When solubility is 1 mass % or more); λf, absorption maximum wavelength [4]: 785 nm; Ai, transmittance at the absorption maximum wavelength [4]: 47.1%; λi, absorption maximum wavelength [4]: 784 nm; Td 5% [5]: 211 °C
3 | CC1(C)C(/C=C/C=C/C=C/C=C2\N(C[Si](C)(C)C)c3ccccc3C2(C)C)=[N+](C[Si](C)(C)C)c2ccccc21 [Embodiment 1] | 0% | 0.1% | 0% | 0% | 0% | 0.8% | 89.7% | 87.9% | 91.1% | 90.7% | 91.4% | 89.8% | 88% | 91.1% | 90.7% | 91.4% | 763 nm | 6.6% | 0% | 12.3% | λf, absorption maximum wavelength [4]: 758 nm; Ai, transmittance at the absorption maximum wavelength [4]: 11.5%; λi, absorption maximum wavelength [4]: 758 nm; Td 5% [5]: 231 °C
4 | CC1(C)C(/C=C/C=C/C=C/C=C2\N(C[Si](C)(C)C)c3ccc4ccccc4c3C2(C)C)=[N+](C[Si](C)(C)C)c2ccc3ccccc3c21 [Embodiment 2] | 0.1% | 0.1% | 0% | 0.1% | 0% | 1.4% | 89.5% | 88.6% | 90.3% | 89.8% | 91.3% | 89.5% | 88.7% | 90.3% | 89.8% | 91.3% | 803 nm | 4.2% | 0% | 34.9% | λf, absorption maximum wavelength [4]: 790 nm; Ai, transmittance at the absorption maximum wavelength [4]: 33.5%; λi, absorption maximum wavelength [4]: 790 nm; Td 5% [5]: 230 °C
5 | CC1(C)C(/C=C/C2=C(Cl)C(=C/C=C3\N(C[Si](C)(C)C)c4ccccc4C3(C)C)/CC2)=[N+](C[Si](C)(C)C)c2ccccc21 [Embodiment 3] | 0.1% | 0.1% | 0.1% | 0.1% | 0. % | 0.8% | 87.8% | 86.8% | 89.4% | 88.1% | 91% | 87.9% | 87% | 89.5% | 88.2% | 91% | 817 nm | 6.7% | 0% | 12.3% | λf, absorption maximum wavelength [4]: 823 nm; Ai, transmittance at the absorption maximum wavelength [4]: 11.5%; λi, absorption maximum wavelength [4]: 82. nm; Td 5% [5]: 216 °C
